# From publication PMC7830115, “Design, Synthesis, Molecular Docking, and Tumor Resistance Reversal Activity Evaluation of Matrine Derivative with Thiophene Structure” (Molecules, 2021)
# Tests used:
# HK-1 = test: MTT cytotoxicity assay, HK-1; assay type: cell-based; details: mean ± SD
# Procedure: (§1) Prior to determining the combined inhibitory effects against NPC CDDP-resistance cells, the cytotoxicity effects of these 8 derivatives were evaluated against three NPC cell lines (CNE2, HONE1, and HK-1) and CDDP resistance cell line (CNE2/CDDP) by using MTT (3-(4,5-dimethyl-2-thiazolyl)-2,5-diphenyl-2-H-tetrazolium bromide) assays. […] Moreover, a liver normal cell LO2 was involved to evaluate the selectivity of these 8 compounds by using MTT assays.
# (§2) Nasopharyngeal carcinoma cells (CNE2, HONE1, and CNE2/CDDP) were purchased from Shanghai Aulu Biological Technologh Co., Ltd. (Shanghai, China). HK-1 cell was purchased from Shanghai Shunran Biological Technologh Co., Ltd. CNE2, HONE1, and HK-1 were cultured in DMEM medium supplemented with 10% fetal bovine serum, 1% penicillin-streptomycin. CDDP-resistant NPC cell CNE2/CDDP was cultured in DMEM medium supplemented with CDDP to sustain its drug resistance. Cell viability was detected using the MTT assay. All the 8 derivatives were resolved with DMSO to make a storage solution at 1 M, and CDDP was resolved with phosphate buffer saline (PBS) to make a storage solution at 100 mM. The maximum concentrations of these 8 derivatives and CDDP used in MTT assays were set as 1 mM and 100 µM diluted with DMEM medium, respectively. Medium with 0.1% DMSO was set as control. To begin, an initial MTT assay was conducted to evaluate the cytotoxicity of 3a~3h with a dose range of 50, 100, 200, 400, and 800 µM. Then, a more precise dose range was set to calculate the IC50 of each compound (For 3a~3e: 50, 100, 200, 400, 600, and 800 µM; for 3f~3h: 12.5, 25, 50, 100, 200, and 400 µM). Then, 5000 cells were seeded in a 96-well plate for each well and treated with respective compounds at different concentrations for 72 h following additional treatment with MTT for 2~3 h. Then, MTT was removed and 150 µL DMSO was added into each well and the absorption values were measured at 490 nm using a SpectraMAX M5plate reader (Silicon Valley, CA, USA).
# CNE2 = test: MTT cytotoxicity assay, CNE2; assay type: cell-based; details: mean ± SD
# Procedure: as §1, §2
# CNE2/CDDP = test: MTT cytotoxicity assay, CNE2/CDDP; assay type: cell-based; details: cisplatin resistant cell line, mean ± SD
# Procedure: as §1, §2
# LO2 = test: MTT cytotoxicity assay, LO2 normal liver cell; assay type: cell-based; details: mean ± SD
# Procedure: as §1, §2
# HONE1 = test: MTT cytotoxicity assay, HONE1; assay type: cell-based; details: mean ± SD
# Procedure: as §1, §2
# [1] = test system: NPC cell lines (CNE2, HONE1, and HK-1) and CDDP resistance cell line (CNE2/CDDP); test: MTT cytotoxicity, summary over NPC cell lines and CDDP resistance cell line; assay type: cell-based; details: range over CNE2, HONE1, HK-1 and CNE2/CDDP, read-out: IC50, anti-proliferative effects
# Procedure: as §1
# (§3) Nasopharyngeal carcinoma cells (CNE2, HONE1, and CNE2/CDDP) were purchased from Shanghai Aulu Biological Technologh Co., Ltd. (Shanghai, China). HK-1 cell was purchased from Shanghai Shunran Biological Technologh Co., Ltd. CNE2, HONE1, and HK-1 were cultured in DMEM medium supplemented with 10% fetal bovine serum, 1% penicillin-streptomycin. CDDP-resistant NPC cell CNE2/CDDP was cultured in DMEM medium supplemented with CDDP to sustain its drug resistance. Cell viability was detected using the MTT assay. All the 8 derivatives were resolved with DMSO to make a storage solution at 1 M, and CDDP was resolved with phosphate buffer saline (PBS) to make a storage solution at 100 mM. […] Then, MTT was removed and 150 µL DMSO was added into each well and the absorption values were measured at 490 nm using a SpectraMAX M5plate reader (Silicon Valley, CA, USA).
# [2] = test system: leukemia, breast, and bladder cancer cells; details: cited from earlier work
# CNE2/CDDP cells [3] = test: Apoptosis assay (Annexin V-FITC/PI, FACS); assay type: cell-based; details: 24 h, mean ± SD; for cell apoptosis, treatment alone: CDDP 4 µg/mL or 3f 40 µM alone, three independent experiments
# Procedure: Subsequently, to further verify whether the synergistic effects of compound 3f with CDDP involved cell death, an apoptosis assay was conducted. CNE2/CDDP cells were co-treated with CDDP and compound 3f, or CDDP and 3f alone for 24 h. Then, cells were harvested for staining by using an apoptosis kit, following FACS detection (Figure 3a). Then, the data from three independent experiments were analyzed and the results were shown in the form of histogram (Figure 3b).
# CNE2/CDDP cells (3 × 10^5) were seeded into a 6-well plate for each well. Twenty-four hours later, medium was removed and cells were treated with different compounds for […]. Then, cells were harvested, washed with cold PBS, and stained with Annexin V-FITC and PI for 15 min in dark. Finally, samples were analyzed by flow cytometer.
# Figure 3 Compound 3f (40 µM) increased apoptosis rate of CDDP (4 µg/mL) in CNE2/CDDP cells. (a), representative apoptosis detection by FACS. (b), three independent experiments of apoptosis assays were analyzed and p-value was calculated. Data are represented as mean ± SD. Bar means SD value * p < 0.05, compared with CDDP; # p < 0.05, compared with 3f.
# [4] = Serum ALT, AST and Cr by ELISA; assay type: in vivo, BALB/C nude mice; details: groups: vehicle, CDDP 5 mg/kg, 3f 40 mg/kg, combination; ELISA at sacrifice
# Procedure: (§4) Finally, to evaluate the combination inhibitory effects of compound 3f with CDDP in vivo, the subcutaneous tumor-bearing model was applied by using strain of BALB/C nude mice. In detail, 32 BALB/C nude mice without tumor were purchased and CNE2/CDDP cells (2 × 10^7) were subcutaneously injected into the right flank of each mouse to make tumor burden. Then, the 32 mice with tumor burden were divided into four groups which receive vehicle, CDDP (5 mg/kg), compound 3f (40 mg/kg), and CDDP with 3f combination treatments (5mg/kg for CDDP and 40 mg/kg for 3f), respectively, through intraperitoneal injection with two times a week for one month. […] The adverse effects of treatment were also tested by detecting serum concentration of Alanine Aminotransferase (ALT), Aspartate aminotransferase (AST), and creatinine (Cr).
# Mice were sacked at the time of the animal sacrifice and blood was collected to detect ALT, AST, and Cr. Immediately, serum was separated by centrifugation at 2000 g, and ALT, Cr, and AST were determined using ELISA kits (Shanghai Enzyme-linked Biotechnology Co., Ltd., catalog: ml063179, ml058577, and ml057581) according to the manufacture instructions. The absorbance of the plates was read at 450 nm using an automated microplate reader (Bio-Tek, Winooski, VT, USA).
# CNE2/CDDP cells [5] = test: Combined inhibitory effect with CDDP, MTT; assay type: cell-based; details: co-treated with CDDP (5 µM) and compound at IC10, MTT
# Procedure: Compounds regularly show synergy effects with a relatively low dosage range (IC10 to IC30). In order to preliminarily verify whether 8 compounds could increase cell sensitivity to CDDP, CNE2/CDDP cells were co-treated with CDDP (5 µM) and each compound (IC10), respectively. The cytotoxicity was evaluated by using MTT assays. […] Thus, compound 3f was selected for further experiments.
# as §3, with “mM. The maximum concentrations of these 8 derivatives and CDDP used in MTT assays were set as 1 mM and 100 µM diluted with DMEM medium, respectively.” for “mM.”, “USA). […]” for “USA).”
# CNE2/CDDP cells [6] = test: Subcutaneous tumor-bearing model, CNE2/CDDP; assay type: in vivo
# Procedure: as §4
# The in vivo studies were conducted according to protocols approved by the Animal Ethics Committee of Guangxi University (GXU2018-019). The subcutaneous tumor-bearing model using BALB/C nude mice was applied to assess the in vivo CDDP-resistant reversal activity of compound 3f. In brief, 32 BALB/C nude mice without tumor were purchased and CNE2/CDDP cells (2 × 10^7) were subcutaneously injected into the right flank of each mouse to make tumor burden. Then, the 32 mice with tumor burden were divided into four groups which receive vehicle, CDDP (5 mg/kg), compound 3f (40 mg/kg), and CDDP with 3f combination treatments (5 mg/kg for CDDP and 40 mg/kg for 3f) (n = 8 for each group; twice a week for a month). Drugs were resolved with sterile saline–ethanol–DMSO (89:10:1, v/v/v). Sterile saline–ethanol–DMSO (89:10:1, v/v/v) was used as vehicle. Tumor volume was calculated according to the formula: V = 0.5 × L × W^2 (L: the long diameter of the tumor; W: the short diameter of the tumor). At the time of the animal sacrifice, tumors were excised and weighted.
# CNE2/CDDP cells [7] = test: Synergistic inhibitory effect with CDDP, combination index (Chou-Talalay); assay type: cell-based; details: treated simultaneously with 3f (20, 40, 60 µM) and CDDP (5, 10, 15 µM), 72 h; CI < 1 synergism
# Procedure: To determine whether compound 3f display synergistic inhibitory effects with CDDP against CNE2/CDDP cells, an MTT assay was performed. Cells were co-treated with compound 3f and CDDP or treated with CDDP or 3f alone. There are 9 groups of the combination between 3f and CDDP (Table 2). Inhibition rates were calculated, and the fraction affected (Fa) and CI (Combination Index) were generated for each group, and dose–effect curves were obtained. The CI greater than, equal to, and less than 1.0 indicate antagonistic, additive and synergistic effects, respectively.
# The combination index (CI) was evaluated using Calcusyn 2.0 based on the Chou-Talalay method. Data from cell viability assays were applied to the CI calculation.
# Figure 2 Synergistic inhibitory effects of compound 3f with CDDP in CNE2/CDDP cells. CNE2/CDDP cells were cultured with 3f and/or CDDP. After 72 h, 3-(4,5-dimethyl-2-thiazolyl)-2,5-diphenyl-2-H-tetrazolium bromide (MTT) was added. Two hours later, optical density (OD) was detected, and the inhibition rate was quantified. Combination Index (CI) plots were then generated using the Chou-Talay method and Calcusyn software.
SMILES,melting point [°C],"IC50 (HK-1; HK-1, 72 h) [µM]","IC50 (CNE2; Homo sapiens, CNE-2, 72 h) [µM]","IC50 (CNE2/CDDP; Homo sapiens, CNE-2, 72 h) [µM]","IC50 (LO2; Homo sapiens, L02, 72 h) [µM]","IC50 (HONE1; Homo sapiens, HONE1, 72 h) [µM]",also measured
"Cc1ccc(/C=C2\CC[C@@H]3[C@H]4CCCN5CCC[C@@H](CN3C2=S)[C@@H]45)s1 [3d, 14-((5-methylthiophen-2-yl)methylene)thiomatrine]",186.2 to 187.4,138 ± 9.4,92.4 ± 6.5,294 ± 20.1,138 ± 9.6,121 ± 7.7,–
O=C1CCC[C@@H]2[C@H]3CCCN4CCC[C@@H](CN12)[C@@H]34 [Matrine],–,> 1000,> 1000,> 1000,> 1000,> 1000,IC50 [1]: > 1000 µM; dosage reversing drug resistance in vitro [2]: more than 1 mM
S=C1/C(=C/c2cccs2)CC[C@@H]2[C@H]3CCCN4CCC[C@@H](CN12)[C@@H]34 [3b],–,208 ± 9.4,158 ± 11.3,583 ± 15.3,156 ± 11.7,125 ± 6.3,–
S=C1/C(=C/c2csc3ccccc23)CC[C@@H]2[C@H]3CCCN4CCC[C@@H](CN12)[C@@H]34 [3a],–,179 ± 12.1,113 ± 7.2,375 ± 18.1,212 ± 15.3,152 ± 8.4,–
"S=C1C(=Cc2ccc(Cl)s2)CCC2C3CCCN4CCCC(CN12)C34 (centres unmarked) [3f, 14-((5-chlorothiophen-2-yl)methylene)thiomatrine]",–,51.3 ± 3.5,35.7 ± 3.4,91.4 ± 8.8,72 ± 5.8,–,"IC50 [1]: 30 to 100 µM; cell apoptosis, treatment alone (CNE2/CDDP cells [3]): 9.97 ± 1.36; cell apoptosis, combined treatment with CDDP (CNE2/CDDP cells [3]; CDDP (4 µg/mL) and 3f (40 µM) combined): 15.53 ± 1.61; serum concentrations of ALT, AST, and Cr [4]: no significant changes; increase of the inhibitory effects of CDDP (CNE2/CDDP cells [5]): could increase the inhibitory effects of CDDP; tumor volume and weight, combined treatment with CDDP (CNE2/CDDP cells [6]; CDDP 5 mg/kg + 3f 40 mg/kg, intraperitoneal, twice a week for one month, compared with CDDP or 3f alone): significantly reduced tumor volume and weight; toxicity in vivo (CNE2/CDDP cells [6]; dose of 40 mg/kg, reflected by mouse body weight and ALT, AST, Cr): no obvious toxicity; body weight of mice (CNE2/CDDP cells [6]; groups: vehicle, CDDP 5 mg/kg, 3f 40 mg/kg, combination, i.p. twice a week for one month): no significant difference in body weight; CI (Combination Index) (CNE2/CDDP cells [7]): less than 1"
"S=C1/C(=C/c2ccsc2)CC[C@@H]2[C@H]3CCCN4CCC[C@@H](CN12)[C@@H]34 [3c, 14-(thiophen-3-ylmethylene)thiomatrine]",166.8 to 167.5,191 ± 11.3,144 ± 10.3,676 ± 23.8,285 ± 20.7,–,–
"[NH2][Pt]([NH2])([Cl])[Cl] [CDDP, Cisplatin, reference compound]",–,–,–,–,–,–,"IC50 (HK-1; 72 h): 6.73 ± 0.42 µM; IC50 (CNE2; 72 h): 3.77 ± 0.26 µM; IC50 (CNE2/CDDP; 72 h): 29.5 ± 3.12 µM; IC50 (LO2; 72 h): 6.33 ± 0.56 µM; cell apoptosis, treatment alone (CNE2/CDDP cells [3]): 7.58 ± 0.82; IC50 (HONE1; 72 h): 5.23 ± 0.37 µM"

# More lines, main results first:
melting point [°C],SMILES,"IC50 (HK-1; HK-1, 72 h) [µM]","IC50 (CNE2; Homo sapiens, CNE-2, 72 h) [µM]","IC50 (CNE2/CDDP; Homo sapiens, CNE-2, 72 h) [µM]","IC50 (LO2; Homo sapiens, L02, 72 h) [µM]","IC50 (HONE1; Homo sapiens, HONE1, 72 h) [µM]",also measured
245.7 to 246.3,"S=C1/C(=C/c2cc(Br)cs2)CC[C@@H]2[C@H]3CCCN4CCC[C@@H](CN12)[C@@H]34 [3g, 14-((4-bromothiophen-2-yl)methylene)thiomatrine]",90.7 ± 6.6,58.3 ± 2.9,206 ± 11.7,68 ± 5.1,71.5 ± 4.2,–
193.6 to 195,"Cc1ccsc1/C=C1\CC[C@@H]2[C@H]3CCCN4CCC[C@@H](CN2C1=S)[C@@H]34 [3e, 14-((3-methylthiophen-2-yl)methylene)thiomatrine]",180 ± 7.3,148 ± 5.6,452 ± 26.8,243 ± 12.7,185 ± 12.4,–
239.9 to 240.6,"S=C1/C(=C/c2ccc(Br)s2)CC[C@@H]2[C@H]3CCCN4CCC[C@@H](CN12)[C@@H]34 [3h, 14-((5-bromothiophen-2-yl)methylene)thiomatrine]",103 ± 7.8,76.2 ± 4.5,178 ± 15.8,92 ± 8.6,89.7 ± 6.2,–
